Test results: PubChem BioAssay AID1919017 (Molecular Pharmacology Branch, DTP, NCI, 2023)
pIC50: −log10 of the molar value.

Test system: SW1271 complex spheroids with HUVEC/MSC, growth, % test/control
Assay: Anticancer human tumor SW1271 cell line growth inhibition [AhR];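 further: spheroids exposed to agents for 7 days before readout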
Details: for pIC50: curve of first compound; for viability, T/C: stronger effect = lower value
Summary of the method: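 Spheroids combined tumor cells with HUVEC endothelial cells and human MSCs as stroma. AhR antagonists were paired with standard or investigational drugs, each dosed in half-log steps down from near clinical Cmax, or from 10 microM where Cmax was unknown.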

[1] = second compound 0.1 µM, first compound 0.0316 µM
[2] = second compound 0.1 µM, first compound 0.1 µM
[3] = second compound 0.316 µM, first compound 0.0316 µM
[4] = second compound 0.316 µM, first compound 0.1 µM
[5] = second compound 1 µM, first compound 0.0316 µM
[6] = second compound 1 µM, first compound 0.1 µM
[7] = second compound 3.16 µM, first compound 0.0316 µM
[8] = second compound 3.16 µM, first compound 0.1 µM
[9] = second compound 10 µM, first compound 0.0316 µM
[10] = second compound 10 µM, first compound 0.1 µM
[11] = second compound 0.1 µM, first compound 0.316 µM
[12] = second compound 0.1 µM, first compound 1 µM
[13] = second compound 0.1 µM, first compound 3.16 µM
[14] = second compound 0.1 µM, first compound 10 µM
[15] = second compound 0.316 µM, first compound 0.316 µM
[16] = second compound 0.316 µM, first compound 1 µM
[17] = second compound 0.316 µM, first compound 3.16 µM
[18] = second compound 0.316 µM, first compound 10 µM
[19] = second compound 1 µM, first compound 0.316 µM
[20] = second compound 1 µM, first compound 1 µM
[21] = second compound 1 µM, first compound 3.16 µM
[22] = second compound 1 µM, first compound 10 µM
[23] = second compound 3.16 µM, first compound 0.316 µM
[24] = second compound 3.16 µM, first compound 1 µM
[25] = second compound 3.16 µM, first compound 3.16 µM
[26] = second compound 3.16 µM, first compound 10 µM
[27] = second compound 10 µM, first compound 0.316 µM
[28] = second compound 10 µM, first compound 1 µM
[29] = second compound 10 µM, first compound 3.16 µM
[30] = second compound 10 µM, first compound 10 µM

Row | Compound | pIC50 (second compound 0.1 µM) | pIC50 (second compound 0.316 µM) | pIC50 (second compound 1 µM) | pIC50 (second compound 3.16 µM) | pIC50 (second compound 10 µM) | viability, T/C [1] | viability, T/C [2] | viability, T/C [3] | viability, T/C [4] | viability, T/C [5] | viability, T/C [6] | viability, T/C [7] | viability, T/C [8] | viability, T/C [9] | viability, T/C [10] | viability, T/C [11] | viability, T/C [12] | viability, T/C [13] | viability, T/C [14] | viability, T/C [15] | also measured
1 | CC[C@@]1(O)C(=O)OCc2c1cc1n(c2=O)Cc2cc3c(CN(C)C)c(O)ccc3nc2-1 + Cc1ccccc1N=Nc1ccc(NC(=O)c2ccnn2C)c(C)c1 | < 7.00 | < 7.00 | < 7.00 | < 7.00 | < 7.00 | 57.5% | 53.1% | 69.2% | 63.9% | 63.8% | 57.3% | 78.2% | 67.4% | 60.8% | 65.5% |  |  |  |  |  | viability, T/C (second compound 0.1 µM, first compound 0.000316 µM): 81.8%; viability, T/C (second compound 0.1 µM, first compound 0.001 µM): 98.9%; viability, T/C (second compound 0.1 µM, first compound 0.00316 µM): 69.4%; viability, T/C (second compound 0.1 µM, first compound 0.01 µM): 67.8%; viability, T/C (second compound 0.316 µM, first compound 0.000316 µM): 89.4%; viability, T/C (second compound 0.316 µM, first compound 0.001 µM): 92%; viability, T/C (second compound 0.316 µM, first compound 0.00316 µM): 79.9%; viability, T/C (second compound 0.316 µM, first compound 0.01 µM): 65.8%; viability, T/C (second compound 1 µM, first compound 0.000316 µM): 77.9%; viability, T/C (second compound 1 µM, first compound 0.001 µM): 83.4%; viability, T/C (second compound 1 µM, first compound 0.00316 µM): 88%; viability, T/C (second compound 1 µM, first compound 0.01 µM): 80%; viability, T/C (second compound 3.16 µM, first compound 0.000316 µM): 84.5%; viability, T/C (second compound 3.16 µM, first compound 0.001 µM): 86.4%; viability, T/C (second compound 3.16 µM, first compound 0.00316 µM): 88.7%; viability, T/C (second compound 3.16 µM, first compound 0.01 µM): 68.2%; viability, T/C (second compound 10 µM, first compound 0.000316 µM): 86.7%; viability, T/C (second compound 10 µM, first compound 0.001 µM): 83%; viability, T/C (second compound 10 µM, first compound 0.00316 µM): 87.2%; viability, T/C (second compound 10 µM, first compound 0.01 µM): 62.1%
2 | COc1cc(C2c3cc4c(cc3C(OC3OC5COC(C)OC5C(O)C3O)C3COC(=O)C23)OCO4)cc(OC)c1O (stereo not given) + Cc1ccccc1N=Nc1ccc(NC(=O)c2ccnn2C)c(C)c1 | 6.58 | 6.57 | 6.38 | 5.80 | 5.99 | 75.4% | 58.1% | 54.1% | 53.9% | 88.8% | 67.5% | 66.8% | 80.4% | 62% | 61.7% | 44.1% | 50.4% | 46.9% | 45.6% | 51.9% | viability, T/C [16]: 46.1%; viability, T/C [17]: 40.4%; viability, T/C [18]: 44.7%; viability, T/C [19]: 49.6%; viability, T/C [20]: 44.1%; viability, T/C [21]: 47.4%; viability, T/C [22]: 35.3%; viability, T/C [23]: 53.1%; viability, T/C [24]: 49.4%; viability, T/C [25]: 51.2%; viability, T/C [26]: 34%; viability, T/C [27]: 54%; viability, T/C [28]: 50.2%; viability, T/C [29]: 43.8%; viability, T/C [30]: 37.2%
3 | Nc1ccn(C2OC(CO)C(O)C2(F)F)c(=O)n1 (stereo not given) + Cc1ccccc1N=Nc1ccc(NC(=O)c2ccnn2C)c(C)c1 | > 7.50 | 7.18 | > 7.50 | > 7.50 | 6.47 | 39.2% | 48.4% | 54.6% | 49.8% | 41.1% | 50.1% | 43.2% | 51% | 56.5% | 57.3% | 47.2% | 52.8% | 41.3% | 37.2% | 41.8% | viability, T/C [16]: 39.5%; viability, T/C [17]: 39%; viability, T/C [18]: 45.1%; viability, T/C [19]: 56.7%; viability, T/C [20]: 41.5%; viability, T/C [21]: 45.6%; viability, T/C [22]: 40.3%; viability, T/C [23]: 40.7%; viability, T/C [24]: 44.2%; viability, T/C [25]: 39.7%; viability, T/C [26]: 48.5%; viability, T/C [27]: 50.2%; viability, T/C [28]: 43.1%; viability, T/C [29]: 44.7%; viability, T/C [30]: 50.4%
